Reference: patent publication US11439607B2 (Paracelsus Neuroscience I, LLC, priority 2016, dated 2022)

Legend:
CCI rats = experiment: Chronic constriction injury (CCI) model, von Frey paw withdrawal threshold; type: in vivo, rat; conditions: gabapentin 100 mg/kg p.o., 2 hours after administration
Experimental: Peripheral nerve injury was performed according to the method of Bennett and Xie (Bennett and Xie, 1988), with paw withdrawal thresholds to Von Frey filament stimulation measured as described previously (Chaplan et al., 1994; Tal and Bennett, 1994).
In the first cohort of nerve injured rats, hindpaw mechanical hypersensitivity was evident by day 7 and maintained for the duration of the experiment (see FIG. 4A). […] Experiments were run using a simple cross-over design. Tactile hypersensitivity of rats was evaluated one day prior to drug testing. Drugs were allowed to wash out for one week at which time the mechanical hypersensitivity was reassessed. Rats were then randomly re-assigned to groups prior to the next arm of the study being run. In the final arm, tissue was collected from 3 animals from each group immediately after behavioral assessment of allodynia. Dosing of drugs, assessment of mechanical thresholds and collection of tissues were performed by individual experimenters all blinded to treatments.
All CCI data are presented as mean+/−S.E.M. and were analyzed using ANOVA followed by Fisher's PLSD post-hoc analysis (StatView, Cary, N.C.) when appropriate.

Oxaliplatin model = experiment: Oxaliplatin - Acetone test (reaction time); type: in vivo, rodent; conditions: Internal reference, Gabapentin 100 mg/kg p.o.
Experimental: (§1) Depending on the test, the percentage of activity was calculated from the mean value of the vehicle-treated animals and compared to naïve animals, control paw or cut-off value.

Kaolin model = experiment: Kaolin - Gait score; type: in vivo, rodent; conditions: Internal reference, Indomethacin 10 mg/kg p.o.
Experimental: as §1

Carrageenan model = experiment: Carrageenan - Paw pressure test; type: in vivo, rodent; conditions: Internal reference, Indomethacin 30 mg/kg p.o.
Experimental: as §1

Brennan model = Brennan model - Electronic Von Frey test; type: in vivo, rodent; conditions: Internal reference, Morphine 4 mg/kg s.c.
Experimental: as §1

Healthy rats [1] = experiment: Healthy rats - Paw pressure test; type: in vivo; conditions: Internal reference, Morphine 4 mg/kg s.c.
Experimental: as §1

Formalin test = Formalin test - Score; type: in vivo, rodent; conditions: internal reference, Morphine 4 mg/kg s.c.
Experimental: as §1

Bennett model = Bennett model - Paw pressure test; type: in vivo, rodent; conditions: Internal reference, Morphine 4 mg/kg s.c.
Experimental: as §1

Healthy rats [2] = experiment: Healthy rats - Tail flick test; type: in vivo; conditions: Internal reference, Morphine 4 mg/kg s.c.
Experimental: as §1

NCC1(CC(=O)O)CCCCC1 [Gabapentin]
Reversal of mechanical hypersensitivity (tactile allodynia) (CCI rats): 66% | % of activity vs. vehicle (Oxaliplatin model): 82%

COc1ccc2c(c1)c(CC(=O)O)c(C)n2C(=O)c1ccc(Cl)cc1 [Indomethacin]
% of activity vs. vehicle (Kaolin model): 58% | % of activity vs. vehicle (Carrageenan model): 100%

CN1CC[C@]23c4c5ccc(O)c4O[C@H]2[C@@H](O)C=C[C@H]3[C@H]1C5 [Morphine]
% of activity vs. vehicle (Brennan model): 88% | % of activity vs. vehicle (Healthy rats [1]): 69% | % of activity vs. vehicle (Formalin test; early phase): 57% | % of activity vs. vehicle (Formalin test; late phase): 38% | % of activity vs. vehicle (Bennett model): 191% | % of activity vs. vehicle (Healthy rats [2]): 66%
